Assay results from patent US8809500B2, “Complexes comprising mammalian raptor polypeptide and mammalian mTOR polypeptide” (Whitehead Institute For Biomedical Research, priority 2002, dated 2014).

How the values were obtained:
mTOR = target: T1, mTOR (Homo sapiens, UniProt P42345); test: In vitro kinase assay for mTOR activity, endogenous mTOR immunoprecipitates, GST-S6K1 substrate; assay type: biochemical; conditions: for sensitivity of kinase activity of immunoprecipitates of endogenous mTOR: 20 μM inhibitor, added 10 minutes prior to kinase assay; for effect on mTOR kinase activity of mTOR immunoprecipitates from treated cells: cells treated for 10 minutes: 500 mM sucrose, 1 mM H2O2, 1 μm valinomycin A, 100 mM 2-deoxyglucose
T1 construct: the kinase activity of immunoprecipitates of endogenous mTOR depends on the presence of mTOR; endogenous in cells; host or cells: HEK293T
Protocol: FIG. 8A is a gel showing deprivation of amino acids, leucine, or glucose increases the stability of raptor-mTOR complex and decreases mTOR kinase activity, effects reversed by stimulation with leucine or glucose. HEK293T cells were incubated for 50 minutes in RPMI lacking amino acids (−amino acids), leucine (−leucine), or glucose (−glucose) or left untreated (control). Duplicate plates of cells deprived of leucine or glucose were stimulated for 10 minutes with 52 μg/ml leucine (−leu+leu) or 11 mM glucose (−gluc+gluc), respectively. Cells were lysed, anti-mTOR immunoprecipitates prepared, and mTOR kinase activity determined with in vitro kinase assays containing ATP-[γ-^32P] and a GST-S6K1 fusion protein (Burnett et al., PNAS 95:1432-1437 (1998)). Kinase reactions were resolved by SDS-PAGE, proteins transferred to PVDF, ^32P-incorporation into GST-S6K1 detected with autoradiography (third panel from top) and levels of mTOR (top panel) and raptor (middle panel) determined by immunoblotting. Western blot analyses of cell lysates used to prepare mTOR immunoprecipitates showing effects of nutrient conditions on the phosphorylation state and gel mobility of S6K1 in vivo (bottom two panels).
Kinase assays were performed in a volume of 10 μl at 30° C. for 20 min and contained ¼ the washed mTOR immunoprecipitates from 10 million HEK293T cells growing on a 10-cm dish, 200 ng of a GST-S6K1 fusion protein (amino acids 332-502), 1 μCi of [γ-^32P]ATP, 25 mM Hepes-KOH, pH 7.4, 50 mM KCl, 20% glycerol, 10 mM MgCl2, 4 mM MnCl2, 1 mM DTT, and 50 μM unlabeled ATP. When inhibitors were used they were added to the mTOR immunoprecipitates 10 minutes prior to the start of the kinase assay. Reactions were stopped by the addition of 5 μl of 2× sample buffer. After boiling the samples for 3 min, proteins were resolved by 8% SDS-PAGE, transferred to PVDF (poly(vinylidene difluoride)), and phosphorylated proteins visualized with autoradiography. The same blots were then used to determine the levels of mTOR and raptor by western analysis. Kinase assays using recombinant mTOR were performed as described in Burnett et al., PNAS, 95:1432-1437 (1998), except that they were washed as above with Buffer B.

mTOR-raptor complex = target: T2, mTOR-raptor complex (Homo sapiens, UniProt P42345+P62942); test: mTOR-raptor interaction: raptor co-precipitated in mTOR immunoprecipitates (western blot); assay type: cell-based; conditions: for effect on mTOR-raptor interaction (complex stability): cells treated for 10 minutes: 500 mM sucrose, 1 mM H2O2, 1 μm valinomycin A, 100 mM 2-deoxyglucose
T2 construct: endogenous in cells
Text: Unless otherwise stated, for mTOR immunoprecipitates prepared in the absence of the cross-linker, cells were lysed in ice-cold Buffer B (Buffer A in which Triton X-100 is replaced by 0.3% CHAPS) and immunoprecipitates were washed four times in Buffer B and twice in Wash Buffer 2.

S6K1 = test: In vivo phosphorylation state of S6K1 (T389) in cell lysates by western blot; assay type: cell-based, human
HEK293T cells [1] = test: Leucine-induced growth experiment (cell size after leucine re-addition); conditions: HEK293T deprived of leucine 24 hours, then leucine 52 μg/ml; size at 6 and 10 hours; rapamycin added with leucine
Protocol: Cells were transfected with the indicated siRNAs and the experiment performed as described herein. […] Shown are mean±S.D. from samples for each time point.
(§1) Cells were then harvested, diluted 1:10 or 1:20 and replated in fresh media. At 1, 2, and 3 days after replating, the cells were harvested by trypsinization in 2 ml media, diluted 1:20 with counting solution (Isoflow Sheath Fluid, Coulter Corp.) and cell diameters and volumes determined using a particle size counter (Coulter Multisizer II). Cells between 11 and 21 μm in diameter were used for analysis. For the leucine-induced growth experiment, the siRNA transfected cells were diluted into fresh media one day after transfection and, at 24 hours after dilution the cells were deproved of leucine for a further 24 hours. The cells were then provided with leucine (52 μg/ml) and cell diameters, volumes, and numbers determined as above at 6 and 10 hours after the leucine supplementation.
Leucine was then added to the media and cell size measured at 6 and 10 hours after leucine addition.

HEK293T cells [2] = test: Cell size determination in actively growing cells (Coulter Multisizer II); conditions: three days after siRNA transfection or 20 nM rapamycin for 48 hours
Protocol: Cell diameters and volumes were determined three days after transfection using a particle size counter (Coulter Multisizer II). […] Mean±S.D. values were obtained from the indicated numbers of independent trials in which at least 10,000 cells were analyzed per trial.
as §1

[3] = insulin 200 nM for 25 minutes, HEK293T in serum-free media for 24 hours

Compound | effect on mTOR kinase activity of mTOR immunoprecipitates from treated cells (mTOR) | effect on mTOR-raptor interaction (complex stability) (mTOR-raptor complex) | further results
CNCCNS(=O)(=O)c1cccc2cnccc12 [H-8] |  |  | sensitivity of kinase activity of immunoprecipitates of endogenous mTOR (mTOR): not
O=CC[C@@H](O)[C@H](O)[C@H](O)CO [2-deoxyglucose] | inhibited mTOR kinase activity | stabilized the mTOR-raptor interaction | 
COc1cccc(-c2cc(=O)c3ccccc3o2)c1N [PD98059] |  |  | sensitivity of kinase activity of immunoprecipitates of endogenous mTOR (mTOR): not
insulin |  |  | effect on mTOR-raptor interaction (mTOR-raptor complex; [3]): did not affect the raptor-mTOR interaction; effect on phosphorylation state of S6K1 (S6K1; [3]): increased the phosphorylation state of S6K1
antimycin A | inhibited mTOR kinase activity | stabilized the mTOR-raptor interaction | 
CC(C)[C@@H]1NC(=O)[C@H](C)OC(=O)[C@@H](C(C)C)NC(=O)[C@@H](C(C)C)OC(=O)[C@H](C(C)C)NC(=O)[C@H](C)OC(=O)[C@@H](C(C)C)NC(=O)[C@@H](C(C)C)OC(=O)[C@H](C(C)C)NC(=O)[C@H](C)OC(=O)[C@@H](C(C)C)NC(=O)[C@@H](C(C)C)OC1=O [valinomycin] | inhibited mTOR kinase activity | stabilized the mTOR-raptor interaction | 
OO [H2O2] | inhibited the mTOR kinase | stabilized the interaction | 
OC[C@H]1O[C@@](CO)(O[C@H]2O[C@H](CO)[C@@H](O)[C@H](O)[C@H]2O)[C@@H](O)[C@@H]1O [sucrose] | only a modest effect | only a modest effect | effect on phosphorylation state of S6K1 (S6K1; cells treated for 10 minutes with 500 mM sucrose): decreased the phosphorylation state of S6K1
CO[C@H]1C[C@@H]2CC[C@@H](C)[C@@](O)(O2)C(=O)C(=O)N2CCCC[C@H]2C(=O)O[C@H]([C@H](C)C[C@@H]2CC[C@@H](O)[C@H](OC)C2)CC(=O)[C@H](C)/C=C(\C)[C@@H](O)[C@@H](OC)C(=O)[C@H](C)C[C@H](C)/C=C/C=C/C=C/1C [rapamycin] |  |  | growth rate after leucine addition (HEK293T cells [1]): 1.02 % volume per hour; cell diameter, mean±S.D. (HEK293T cells [2]): 14.61±0.10 μm
